Data set [1] can be described thus: Pharmacokinetics and tissue distribution of ibudilast in rat. In kind it is in vivo. The protocol: Ibudilast pharmacokinetics and distribution into plasma, muscle, brain, and spinal cord were assessed as follows.
Drug stability and concentration were validated by HPLC/MS/MS.
Pathogen-free adult male Sprague-Dawley rats (280-350 g; Harlan Labs) were used in all experiments. Rats were housed in temperature (23+/−3° C.) and light (12:12 light: dark; lights on at 0700 hr) controlled rooms with standard rodent chow and water available ad libitum. Behavioral testing was performed during the light cycle.
Calibration standards in plasma were prepared by diluting each 0.5 mg/ml stock 1 in 100 into rat plasma to 5000 ng/ml (5 μl+495 μl), and then diluted further to 2.29 ng/ml by 3-fold serial dilution with plasma. Standards were used as low, mid and high QC samples, respectively.
Calibration standards, QC and plasma study samples were prepared for HPLC injection by precipitating 25 μl of plasma with three volumes (75 μl) of ice cold acetonitrile containing 50 ng/ml diphenhydramine and 100 ng/ml dextromethorphan as the internal standards. Tissue study samples were prepared for HPLC injection by adding 1 μl of water per mg of tissue plus three volumes (relative to water) of ice cold acetonitrile containing 50 ng/ml diphenhydramine and 100 ng/ml dextromethorphan as the internal standards, then homogenizing with an electric homogenizer.

Data set [2] is described as follows: Previous range-finding tolerability studies, intraperitoneal. The class given is in vivo. As to conditions: twice a day (bid) for multiple days.
In data set [3] the test system is naloxone-induced behavioral withdrawal signs. The experiment in a line: Naloxone-induced withdrawal behavior during microdialysis (Example 3). The class given is in vivo, rat. Particulars: 7.5 mg/kg b.i.d. with morphine, vs PEG-saline vehicle and morphine, FIG. 4. The protocol:
Dopamine release in the nucleus accumbens is thought to mediate the “reward” associated with drugs of abuse. […] After 3 baseline samples (20 minute inter-sample interval), morphine was administered to all rats. Dialysis samples were collected at 20 minute intervals for 180 minutes. To test behavioral withdrawal and reversal of morphine-induced dopamine, all rats were administered the opioid antagonist naloxone after the 60 minute sample time was completed.

The format of data set [4] is in vivo, rat. Particulars: normalized to weight at start of morphine.
Data set [5] relates to naloxone precipitated withdrawal behaviors. Nature of the data set: Naloxone precipitated withdrawal behaviors (Example 4). The class given is in vivo, rat. Particulars: for naloxone precipitated withdrawal behaviors: 60 minute observation period, FIG. 5. The protocol: The withdrawal signs measured were: (1) abnormal posturing (an animal presses his abdomen and lower jaw against the floor of the cage); (2) exploration (an animal circles around the cage, thrusting its head in several directions and examining its surroundings); (3) jumping; (4) cleaning (grooming); (5) rearing (an animal stands on its hindpaws with the forepaws off the ground).
Withdrawal scores were measured by blinded observers in 10 minute blocks for 60 minutes immediately after naloxone precipitated withdrawal was initiated. The observations were pooled from 1-10 minutes, 11-20 minutes, 21-30 minutes, 31-40 minutes, 41-50 minutes, 51-60 minutes for each individual rat after naloxone administration, giving six time points. The average score (for each time point) for all animals within an experimental group was reported as the “total withdrawal score” in FIGS. 2A-2D.

Data set [6] can be described thus: Spontaneous opioid withdrawal induced weight loss (Example 5). The class given is in vivo, rat. Particulars: FIG. 9. The protocol: Pathogen-free adult male Sprague-Dawley rats were used in all experiments. Rats (350-375 g at the time of arrival; Harlan Labs, Madison, Wis.) were housed in temperature (23±3° C.) and light (12:12 light:dark; lights on at 0700 hours) controlled rooms with standard rodent chow and water available ad libitum. All procedures were approved by the Institutional Animal Care and Use Committee at the University of Colorado at Boulder. Upon arrival male Sprague Dawley rats (300-400g) were housed individually and allowed to acclimatize to the animal colony telemetry room for one week. 5×90 minute sessions of handling by investigators were performed during the following week. Rats were anesthetized with isoflurane, and emitters for measuring core body temperature ([…], Sun River, Oreg.) were implanted in the peritoneal cavity. Gross motor movement was assessed by telemetry using the same emitters used for recording core body temperature. The emitter had to move for activity to be counted; thus, stationary movements such as grooming were not counted. Activity counts and core body temperature were measured every minute and movement averaged over 120 minutes was calculated (thereby smoothing the data). […] Body weights were recorded prior to each dosing session to allow for accurate dose calculations and to track the opioid induced weight loss (also occurred on days when no dosing was conducted).

Data set [7] relates to activated microglia. Particulars: dose-dependent; cited from earlier work.
In data set [8] the test system is nucleotide phosphodiesterase (PDE). As to conditions: non-selective PDE inhibitor; cited from earlier work.
The conditions of data set [9]: administered systemically; cited from earlier work.

Structures are written as SMILES. Read-outs that look alike come from different tables or passages of the source.

These results are taken from patent publication US7915285B2, “Method for treating drug and behavioral addictions” (priority 2005, dated 2011).

On to `CC(C)C(=O)c1c(C(C)C)nn2ccccc12` [ibudilast, 2-methyl-1-(2-(1-methylethyl)pyrazolo(1,5-a)pyridin-3-yl)1-propanone], for which the plasma concentration profile result in [1] (i.p. 5 mg/kg) is given as “declined from Cmax in a biphasic manner”. Moreover, the tissue distribution result in [1] (i.p. 5 mg/kg, muscle, brain, spinal cord) is “well distributed to peripheral (e.g. muscle) and central (e.g. brain and spinal cord) tissues”. Further, the Cmax in data set [1] (male, Sprague-Dawley, plasma and CNS tissues (brain, spinal cord), ip, i.p. ~5 mg/kg, in 15% ethanol/saline, read-out: maximal concentration (Cmax) in plasma and CNS tissues) is ~1000 ng/mL. In addition, in data set [1] (male, Sprague-Dawley, plasma, muscle, brain, spinal cord (all tissue compartments), ip, i.p. 5 mg/kg, all tissue compartments, read-out: elimination half-life), the half-life (usually the time needed for the level to fall by half in the phase considered) lay within 1.67 to 2.32 h. In addition, the well-tolerated dose level entry in [2] was “up to 15 mg/kg”. For the same molecule, the “naloxone-induced behavioral withdrawal signs” value in data set [3] is reported as “suppressed naloxone-induced behavioral withdrawal signs”. The “morphine induced weight loss on day 7” value was found to be 16.6 ± 5.7 g in [4] (2.5 mg/kg ibudilast) and 13.3 ± 7.1 g in [4] (7.5 mg/kg ibudilast). The “naloxone precipitated withdrawal behaviors” value in data set [5] (2.5 mg/kg) and in [5] (7.5 mg/kg) was “dramatic reduction of naloxone precipitated withdrawal behaviors” throughout. Moreover, the individual withdrawal behaviors result in [5] (on an individual behavior basis) is “reductions in all behaviors except for rearing, exploration and wet dog shakes”. For the same molecule, the “spontaneous opioid withdrawal induced weight loss” value in [6] (higher dose (7.5 mg/kg twice daily)) was “substantially attenuated weight loss”; in data set [6] (lower dose (2.5 mg/kg twice daily)), “only a trend towards improved weight change”. For the same molecule, the “production of inhibitory cytokine and neurotrophic factors” value in data set [7] is “enhanced the production of the inhibitory cytokine, IL-10, and additional neurotrophic factors”. In data set [7], the “production of pro-inflammatory mediators” value was “suppressed the production of nitric oxide (NO), reactive oxygen species, interleukin (IL)-1β, IL-6, and tumor necrosis factor (TNF)”. Moreover, the PDE inhibition profile entry in data set [8] is “most active against PDE-3, PDE-4, PDE-10, and PDE-11”. In data set [9], the blood-brain barrier passage entry is on record as “crosses the blood-brain barrier when administered systemically”.
